Values of other authors in patent publication US9375436B2, “Androgen treatment in females” (priority 2004, dated 2016).

Test system: older mice
Conditions: cited from earlier work

Q: For COC1=C(OC)C(=O)C(C/C=C(\C)CC/C=C(\C)CC/C=C(\C)CC/C=C(\C)CC/C=C(\C)CC/C=C(\C)CC/C=C(\C)CC/C=C(\C)CC/C=C(\C)CCC=C(C)C)=C(C)C1=O [CoQ10, coenzyme Q10], which oocytes numbers is on record?
A: Its oocytes numbers is “increases oocytes numbers”.
